Columns and labels:
[1] = system: IgM; test: Serum IgM in anti-IgD stimulated mice (two site sandwich ELISA, Assay E); format: in vivo, mouse (Balb/c female); details: 20 μg days 3 and 4
Experimental: Sera from mice treated with compounds in accordance with the method of the invention are analyzed for levels of IgG1, IgG2a, IgG3, and IgM.
Measurement of mouse IgM by a two site sandwich ELISA is performed in substantial accordance with the teachings of Assay B except for the following changes. About 250 ng of rabbit anti-mouse IgM (Zymed Laboratories) is used to coat a NuncImmulon 96 well plate. The IgM standard is purchased from Southern Biotech. The standard curve is linear between 8-500 ng/ml. Serum containing IgM is diluted 1/4,000 to 1/60,000. About a 1/10,000 dilution of goat anti mouse IgM conjugated to horse radish peroxidase is used as a combined primary antibody and developing reagent. 100 μl is added to each well and the plate is incubated at about 4° C. overnight. The colorimetric substrate is prepared and used as described in Assay A.
Two groups of 4 Balb/c female mice per group are injected with both 100 μg FF1-4D5 antibody and 100 μg H∂Al antibody. On day 3 and 4 the mice are injected with PBS (Group A) or 20 μg (±) methyl 11α,16-dihydroxy-16-ethyl-9-oxoprosta-5Z,13E-dien-1-oate (Group B) at 7 a.m., 1 p.m. and 7 p.m. in substantial accordance with the teaching of Example 13. On day -1, 7, 8, 9 and 11, 50-100 μl of serum is recovered and analyzed for IgE by Assay A and for IgM by Assay E. The results are shown in Table 6.
Three groups of 5 Balb/c female mice per group are injected with both 100 μg FF1-4D5 antibody and 100 μg H∂A1 antibody on day 0. Group A is a control with no further treatment. On day 3 and 4, the mice are injected with 20 μg (±) methyl 11α,16-dihydroxy-4,4,16-trimethyl-9-oxoprosta-13E-en-1-oate (Group B) or 20 μg (±) methyl 11α,16-dihydroxy-16-methyl-9-oxoprosta-3,5Z,13E-trien-1-oate (Group C) as in Example 13. On day -1 and 8, […] of serum is recovered and analyzed for IgE, IgG1, IgG2a, IgG3 and IgM by Assays A, B, C, D and E, respectively.

[2] = system: IgE; test: Serum IgE response induced by FF1-4D5 + H∂A1 anti-IgD antibodies (ELISA, Assay A / Assay F); format: in vivo, mouse (Balb/c female); details: 20 μg days 3 and 4
Method in brief: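 Transient IgE response induced in female Balb/c mice (10–20 weeks) by a day-0 i.v. or s.c. injection of 100 μg each of anti-IgD FF1-4D5 and H.δA1. Serum IgE measured by sandwich ELISA (B1E3 capture, biotinylated R1E4 detection, avidin-biotin-HRP/ABTS), quantified against an IgE standard curve corrected for serum dilution.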

CCCCC(C)(O)C/C=C/[C@H]1[C@H](O)CC(=O)[C@@H]1CCCC(C)(C)CCC(=O)OC (mixture of isomers) [(±) methyl 11α,16-dihydroxy-4,4,16-trimethyl-9-oxoprost-13E-en-1-oate]
inhibition of IgM ([1]; Example 25): not IgG1, IgG2a, IgG3 and IgM
IgM ± SD ([1]; Table 14, day 8 (control 4147)): 9792 ± 984 µg/mL
de novo IgE synthesis ([2]; Example 25): inhibit de novo IgE synthesis
IgE ± SD ([2]; Table 14, day 8 (control 6071)): < 800 ng/mL

Source: patent US5157052A, “Method for inhibiting IgE production” (priority 1990, dated 1992)
